Assay results from ChEMBL document CHEMBL1131859, “Conformationally restricted paclitaxel analogues: macrocyclic mimics of the "hydrophobic collapse" conformation” (1999).
Calls of active or inactive are those of the source. The calls are words filed in the database; no cut-off is given here.

Legend:
[1] = Inhibitory activity against microtubule assembly stimulated by paclitaxel (1 uM) at a concentration of 20 uM of the compound; No inhibition; type: functional
[2] = system: B16; test: Tested for cytotoxicity against B16 melanoma cells expressed as the ED50 to that of ED50 of paclitaxel.; type: functional, Mus musculus
[3] = Tested for activity using microtubule assembly assay expressed as the ED50 to that of ED50 of paclitaxel.; type: functional
[4] = system: B16; test: Tested for cytotoxicity against B16 melanoma cells expressed as the ED50 to that of ED50 of paclitaxel; In active; type: functional, cell-based; conditions: Mus musculus
[5] = Tested for activity using microtubule assembly assay expressed as the ED50 to that of ED50 of paclitaxel; In active; type: functional

## CC(=O)O[C@H]1C(=O)[C@@]2(C)[C@H]([C@@H]3OC(=O)c4cccc(c4)/C=C\c4ccccc4[C@H](NC(=O)c4ccccc4)[C@@H](O)C(=O)OC4C[C@]3(O)C(C)(C)C1=C4C)[C@]1(OC(C)=O)CO[C@@H]1C[C@@H]2O
[1]
  Ratio: inactive

## CC(=O)O[C@H]1C(=O)[C@@]2(C)[C@H]([C@H](OC(=O)c3ccccc3)[C@]3(O)CC(OC(=O)[C@H](O[Si](C)(C)C(C)(C)C)[C@@H](NC(=O)c4ccccc4)c4cccc(I)c4)C(C)=C1C3(C)C)[C@]1(OC(C)=O)CO[C@@H]1C[C@@H]2O (stereo not given in full)
[2]
  Ratio: 27
[3]
  Ratio: 4.6

## CC(=O)O[C@H]1C(=O)[C@@]2(C)[C@H]([C@H](OC(=O)c3ccccc3)[C@]3(O)CC(OC(=O)/C=C(\NC(=O)c4ccccc4)c4cccc(I)c4)C(C)=C1C3(C)C)[C@]1(OC(C)=O)CO[C@@H]1C[C@@H]2O (stereo not given in full)
[4]
  Ratio: inactive
[5]
  Ratio: inactive
